US7058616B1, “Method and system for predicting resistance of a disease to a therapeutic agent using a neural network” (Virco Bvba, priority 2000, dated 2006)

Columns and labels:
HIV-1 [1] = assay: MT-4 cell viral cytopathic effect protection assay, phenotypic susceptibility of patient recombinant virus; assay type: cell-based
Procedure: Phenotypic susceptibility was determined using a MT-4 cell viral cytopathic effect protection assay. See, e.g., Kashiwase et al., Chemotherapy 45(1):48–55 (1999), expressly incorporated herein by reference; Larder et al., Antimicrob. Agents Chemother. 43(8):1961–1967 (1999).

HIV-1 [2] = details: cited from earlier work

CC(C)CN(C[C@@H](O)[C@H](Cc1ccccc1)NC(=O)O[C@H]1CCOC1)S(=O)(=O)c1ccc(N)cc1 [VX-478]
actual phenotype resistance level (HIV-1 [1]; PI test sample 1): S/S (A fold resistance of less than or equal to 4 is considered to be ‘sensitive’)
actual phenotype resistance level (HIV-1 [1]; PI test sample 2): S/S (A fold resistance of less than or equal to 4 is considered to be ‘sensitive’)
actual phenotype resistance level (HIV-1 [1]; PI test sample 3): S/S (A fold resistance of less than or equal to 4 is considered to be ‘sensitive’)
actual phenotype resistance level (HIV-1 [1]; PI test sample 4): I/I (greater than 4 and less than 10 is considered to be ‘intermediate’)
actual phenotype resistance level (HIV-1 [1]; PI test sample 6): S/S (A fold resistance of less than or equal to 4 is considered to be ‘sensitive’)
actual phenotype resistance level (HIV-1 [1]; PI test sample 7): S/S (A fold resistance of less than or equal to 4 is considered to be ‘sensitive’)
actual phenotype resistance level (HIV-1 [1]; PI test sample 8): S/S (A fold resistance of less than or equal to 4 is considered to be ‘sensitive’)
actual phenotype resistance level (HIV-1 [1]; PI test sample 9): S/S (A fold resistance of less than or equal to 4 is considered to be ‘sensitive’)
actual phenotype resistance level (HIV-1 [1]; PI test sample 10): S/S (A fold resistance of less than or equal to 4 is considered to be ‘sensitive’)
actual phenotype resistance level (HIV-1 [1]; PI test sample 11): S/S (A fold resistance of less than or equal to 4 is considered to be ‘sensitive’)
actual phenotype resistance level (HIV-1 [1]; PI test sample 12): S/S (A fold resistance of less than or equal to 4 is considered to be ‘sensitive’)
actual phenotype resistance level (HIV-1 [1]; PI test sample 13): I/I (greater than 4 and less than 10 is considered to be ‘intermediate’)
actual phenotype resistance level (HIV-1 [1]; PI test sample 14): S/S (A fold resistance of less than or equal to 4 is considered to be ‘sensitive’)
actual phenotype resistance level (HIV-1 [1]; PI test sample 15): S/S (A fold resistance of less than or equal to 4 is considered to be ‘sensitive’)
actual phenotype resistance level (HIV-1 [1]; PI test sample 16): R/R (if the value is greater than 10, it is considered to be ‘resistant’)
actual phenotype resistance level (HIV-1 [1]; PI test sample 18): S/S (A fold resistance of less than or equal to 4 is considered to be ‘sensitive’)
actual phenotype resistance level (HIV-1 [1]; PI test sample 19): S/S (A fold resistance of less than or equal to 4 is considered to be ‘sensitive’)
actual phenotype resistance level (HIV-1 [1]; PI test sample 20): S/S (A fold resistance of less than or equal to 4 is considered to be ‘sensitive’)
actual phenotype resistance level (HIV-1 [1]; PI test sample 21): S/S (A fold resistance of less than or equal to 4 is considered to be ‘sensitive’)
actual phenotype resistance level (HIV-1 [1]; PI test sample 22): S/S (A fold resistance of less than or equal to 4 is considered to be ‘sensitive’)
actual phenotype resistance level (HIV-1 [1]; PI test sample 23, listed as Amprenavir): R/R (if the value is greater than 10, it is considered to be ‘resistant’)
actual phenotype resistance level (HIV-1 [1]; PI test sample 24): R/R (if the value is greater than 10, it is considered to be ‘resistant’)
actual phenotype resistance level (HIV-1 [1]; PI test sample 26): S/S (A fold resistance of less than or equal to 4 is considered to be ‘sensitive’)
actual phenotype resistance level (HIV-1 [1]; PI test sample 30): I/I (greater than 4 and less than 10 is considered to be ‘intermediate’)
actual phenotype resistance level (HIV-1 [1]; PI test sample 31, listed as Amprenavir): R/R (if the value is greater than 10, it is considered to be ‘resistant’)
actual phenotype resistance level (HIV-1 [1]; PI test sample 36, listed as APV): I/I (greater than 4 and less than 10 is considered to be ‘intermediate’)
actual phenotype resistance level (HIV-1 [1]; PI test sample 38, listed as Amprenavir): I/I (greater than 4 and less than 10 is considered to be ‘intermediate’)
actual phenotype resistance level (HIV-1 [1]; PI test sample 39): I/I (greater than 4 and less than 10 is considered to be ‘intermediate’)
actual phenotype resistance level (HIV-1 [1]; PI test sample 44): I/I (greater than 4 and less than 10 is considered to be ‘intermediate’)
actual phenotype resistance level (HIV-1 [1]; PI test sample 46): I/I (greater than 4 and less than 10 is considered to be ‘intermediate’)
actual phenotype resistance level (HIV-1 [1]; PI test sample 49): I/I (greater than 4 and less than 10 is considered to be ‘intermediate’)
actual phenotype resistance level (HIV-1 [1]; Table 3 testing sample 1): S/S (A fold resistance of less than or equal to 4 is considered to be “sensitive,”)
actual phenotype resistance level (HIV-1 [1]; Table 3 testing sample 2): S (A fold resistance of less than or equal to 4 is considered to be “sensitive,”)
actual phenotype resistance level (HIV-1 [1]; Table 3 testing sample 3): S/S (A fold resistance of less than or equal to 4 is considered to be “sensitive,”)
actual phenotype resistance level (HIV-1 [1]; Table 3 testing sample 6): S/S (A fold resistance of less than or equal to 4 is considered to be “sensitive,”)
actual phenotype resistance level (HIV-1 [1]; Table 3 testing sample 7): S/S (A fold resistance of less than or equal to 4 is considered to be “sensitive,”)
actual phenotype resistance level (HIV-1 [1]; Table 3 testing sample 8): S/S (A fold resistance of less than or equal to 4 is considered to be “sensitive,”)
actual phenotype resistance level (HIV-1 [1]; Table 3 testing sample 9): S/S (A fold resistance of less than or equal to 4 is considered to be “sensitive,”)
actual phenotype resistance level (HIV-1 [1]; Table 3 testing sample 10): S/S (A fold resistance of less than or equal to 4 is considered to be “sensitive,”)
actual phenotype (HIV-1 [1]; Table 13/14 sample 4: 10I,46I,71V,77I,84V,90M, 63P,93L): S (A fold resistance of less than or equal to 4 is considered to be ‘sensitive’)
actual phenotype (HIV-1 [1]; Table 13/14 sample 12: 10I,36I,46I,84V,90M, 20I,63P,73C,85V): R (if the value is greater than 10, it is considered to be ‘resistant’)
actual phenotype (HIV-1 [1]; Table 13/14 sample 15: 46I,84V,90M, 20I,63Q): I (greater than 4 and less than 10 is considered to be ‘intermediate’)
actual phenotype (HIV-1 [1]; Table 13/14 sample 16: 10I,46I,77I,84V,90M, 63P,73T,93L): S (A fold resistance of less than or equal to 4 is considered to be ‘sensitive’)
actual phenotype (HIV-1 [1]; Table 13/14 sample 22: 10I,20R,36I,71V,73S,84V,90M, 13V,63P): I (greater than 4 and less than 10 is considered to be ‘intermediate’)
actual phenotype (HIV-1 [1]; Table 13/14 sample 23: 10I,46I,77I,90M, 20I,63P,73T): S (A fold resistance of less than or equal to 4 is considered to be ‘sensitive’)
Effect of N88S mutation on susceptibility (HIV-1 [2]; in vitro): in vitro hypersensitivity

Nc1ccn([C@@H]2CS[C@H](CO)O2)c(=O)n1 [3TC]
actual phenotype resistance level (HIV-1 [1]; Table 3 testing sample 1): S/S (A fold resistance of less than or equal to 4 is considered to be “sensitive,”)
actual phenotype resistance level (HIV-1 [1]; Table 3 testing sample 2): R/R (if the value is greater than 10, it is considered to be “resistant.”)
actual phenotype resistance level (HIV-1 [1]; Table 3 testing sample 3): R/R (if the value is greater than 10, it is considered to be “resistant.”)
actual phenotype resistance level (HIV-1 [1]; Table 3 testing sample 4): S/S (A fold resistance of less than or equal to 4 is considered to be “sensitive,”)
actual phenotype resistance level (HIV-1 [1]; Table 3 testing sample 5): R/R (if the value is greater than 10, it is considered to be “resistant.”)
actual phenotype resistance level (HIV-1 [1]; Table 3 testing sample 6): R (if the value is greater than 10, it is considered to be “resistant.”)
actual phenotype resistance level (HIV-1 [1]; Table 3 testing sample 7): R/R (if the value is greater than 10, it is considered to be “resistant.”)
actual phenotype resistance level (HIV-1 [1]; Table 3 testing sample 8): R/R (if the value is greater than 10, it is considered to be “resistant.”)
actual phenotype resistance level (HIV-1 [1]; Table 3 testing sample 9): R/R (if the value is greater than 10, it is considered to be “resistant.”)
actual phenotype resistance level (HIV-1 [1]; Table 3 testing sample 10): S/S (A fold resistance of less than or equal to 4 is considered to be “sensitive,”)
Effect of M184V mutation on 3TC susceptibility (HIV-1 [2]): confers resistance
Effect of 333D/E mutation (HIV-1 [2]; reverses the M184V effect): dual AZT/3TC resistance
